According to US7511076B2, “Nitrosation-inducible inhibitors biological macromolecules” (New York University, priority 2000, dated 2009):

Legend:
[1] = tested on: prostatic carcinoma cell lines DU-145 and PC-3 and normal human fibroblasts (WI-38); test: MTS cytotoxicity assay (CellTiter 96); details: for Effect of the additive on ANSA cytotoxicity: NO trap or general NOS inhibitor added; for Cytotoxic effect / cell survival (MTS, in words): 0.1-100 μM, 72 h, presence or absence of *NO
Description: A second preliminary study used two human hormone-independent prostatic carcinoma cell lines DU-145 and PC-3 (ATCC, Virginia) and normal human fibroblasts (WI-38). The MTS cytotoxicity assay (“CellTiter 96”, Promega) was used to measure the cytotoxicity of several ANSA compounds in the presence or absence of *NO. All compounds tested in vitro were dissolved in DMSO ([…]) and subsequently diluted in the culture medium before treatment of the cultured cells. Tested cells were plated in 96-well plates at a density of 4×10^3 cells/well/200 μL of the proper culture medium and treated with the compounds at concentrations of 0.1-100 μM. In parallel, the cells were treated with 1% of DMSO as control. MTS assay was performed 72 h later according to instructions provided by the manufacturer (Promega). This assay is based on the cellular conversion of the tetrazolium salt, MTS[3-(4,5-dimethylthiazol-2-yl)-5-(3-carboxymethoxyphenyl)-2-(4-sulfophenyl)-2H-tetrazolium, inner salt], into a formazan that is soluble in cell culture medium and is measured at 490 nm directly in 96-well assay plates without additional processing. Absorbency is directly proportional to the number of living cells in culture.
In order to be nitrosated, peptidyl-ANSA must undergo cleavage of the C-terminal amino acid residue to relieve the R3 NH2 group.

[2] = tested on: Escherichia coil strain BL21 and Bacillus subtilis Strain IS75; test: Bactericidal effect on Gram-negative and Gram-positive bacteria; type: cell-based, Escherichia coli; Bacillus subtilis; details: for Effect of the additive on the bactericidal effect of ANSA (CFU): NO trap or water solution of NO added with ANSA
Description: (§1) ANSA Derivatives as a New Class of Antibiotics and Antineoplastic Drugs. ANSA derivatives (shown in FIG. 9) were tested for their cytotoxic capabilities using wild type strains of Gram-negative and Gram-positive bacterial (Escherichia coil strain BL21 and Bacillus subtilis Strain IS75).
In order to be nitrosated, peptidyl-ANSA must undergo cleavage of the C-terminal amino acid residue to relieve the R3 NH2 group. Taking advantage of the chromogenic nature of ANSA compounds, it was possible to determine whether the peptidyl-ANSA were transported in the cell and processed by proteolysis.

[3] = target: T1, RNA polymerase from E. coli (RNAP) (Escherichia coli, UniProt P0A7Z4+P0A8T7+P0A8V2); test: *NO-dependent RNAP inactivation assay (in vitro transcription); type: biochemical; details: for *NO-dependent inactivation of RNAP (transcription) in the presence of ANSA: RNAP + ANSA treated with low dose of *NO; for Effect on transcription by RNAP, agent alone: agent added alone (*NO low dose without ANSA; ANSA without *NO)
T1 construct: made in house
Description: Transcription reactions (total volume=20 μl) were performed in a buffer containing 20 mM Tris HCL, pH 7.5, 10 mM MgCl2, 50 mM KCl, 8 μM ATP, GTP, UTP, 1.8 μM CTP, and 0,15 μM [α-^32P] CTP (3000 Ci/mmol) for 5 minutes at 37° C. RNAP was purified as described (Nudler et al, 1996). The DNA template containing the A1 promoter of phage T7 was obtained by polymerase chain reaction from the plasmid pENtR2 (Nudler et al, 1996).
Hydrophobic Amines (ANSA) as *NO-Dependent Enzyme Inhibitors. To investigate whether this mechanism might be functioning in proteins other than BSA, the effect of nitrosation on a completely distinct protein—RNA polymerase from E. coli (RNAP)—was examined. The experiments were done by exposing RNAP to a low dose of *NO, and then adding the DNA template and ribonucleotide substrates to initiate the transcription reaction. For a control, a solution of NO2^− for the *NO was substituted by oxidizing *NO prior to the experiment. […] The *NO-dependent inhibition of RNAP was complex. […] Shorter transcripts represent paused RNAP molecules resulting from the limited amount of CTP in the reaction. […] The complex inhibitory effect of nitrosation on RNAP is not surprising since many potential nitrosation targets are distributed in structurally and functionally distinct regions of the enzyme (Zhang et al, 1999).
To determine whether this process could also occur with RNAP, the mixture of RNAP+ANSA II was treated with *NO (FIG. 3, lane 4).
To further test the autocatalytic mechanism of enzyme inactivation and the key role of nitrosation-azocoupling in this process additional ANSA was synthesized and were tested in the *NO-dependent RNAP inactivation assay (FIG. 3). […] ANSA VI and ANSA VII, with methyl and peptidyl substitutions in the NH2 group, were incapable of forming aryldiazonium cation upon nitrosation. […] This experiment raises the possibility that hydrophobic amines could be used as efficient tools for the *NO-dependent inactivation of enzymes.

[4] = tested on: Bacillus subtilis Strain IS75; test: Bactericidal effect of ANSA derivatives on B. subtilis cultures (CFU count); type: cell-based; details: 20 μg/ml ANSA, 30 minutes, room temperature, start 10^7 CFU ml^−1, *NO and/or PTIO 20 μM where indicated; for CFU, B. subtilis, rich media: LB broth; for CFU, B. subtilis, minimal media: Spizizen's minimal media
Description: as §1

[5] = tested on: Escherichia coil strain BL21; test: Bactericidal effect of ANSA derivatives on E. coli cultures (CFU count); type: cell-based, Escherichia coli; details: 20 μg/ml ANSA, 30 minutes, room temperature, start 10^7 CFU ml^−1, *NO and/or PTIO 20 μM where indicated; for CFU, E. coli, rich media: LB broth; for CFU, E. coli, minimal media: M9 minimal media
Description: as §1

BSA = target: T2, BSA (Bos taurus, UniProt P02769); test: Complex formation and nitrosation of ANSA in the presence of BSA (gel filtration, fluorescence, TLC); type: binding; details: for Nitrosation of ANSA in the ANSA I+ANSA II+BSA mixture: low dose of *NO (5 molar excess), aerobic
T2 construct: purchased Sigma
Description: ANSA were synthesized from 5-nitronaphthalenesulphoacids and 5-aminonaphthalenesulphoacids (Reahim). TLC of ANSA and their derivatives was carried out on Silica gel 60 plates (Merck) in the hexane/ethyl acetate system. Gel filtration was performed using the Sephadex G25M size-exclusion column (Pharmacia). Fluorescence of ANSA was observed and measured under 365 nm UV light using BioRad Fluor-S MultiImager system.
The present inventors first synthesized two ANSA with opposite hydrophobic properties (FIG. 12B). In the low-hydrophobic ANSA molecule (ANSA I), the R1 group is —CH3 and the R2 group is —H. The highly hydrophobic ANSA (ANSA II) has C3H7 for both R1 and RExperiments were done by mixing an aqueous solution of ANSA with the test protein, and then initiating the nitrosation reaction by the aerobic addition of an aqueous solution of *NO. Two initial concentrations of *NO were used at 25 molar excess over ANSA (high dose) and a 5 molar excess (low dose).

T2 sequence (P02769 25-607): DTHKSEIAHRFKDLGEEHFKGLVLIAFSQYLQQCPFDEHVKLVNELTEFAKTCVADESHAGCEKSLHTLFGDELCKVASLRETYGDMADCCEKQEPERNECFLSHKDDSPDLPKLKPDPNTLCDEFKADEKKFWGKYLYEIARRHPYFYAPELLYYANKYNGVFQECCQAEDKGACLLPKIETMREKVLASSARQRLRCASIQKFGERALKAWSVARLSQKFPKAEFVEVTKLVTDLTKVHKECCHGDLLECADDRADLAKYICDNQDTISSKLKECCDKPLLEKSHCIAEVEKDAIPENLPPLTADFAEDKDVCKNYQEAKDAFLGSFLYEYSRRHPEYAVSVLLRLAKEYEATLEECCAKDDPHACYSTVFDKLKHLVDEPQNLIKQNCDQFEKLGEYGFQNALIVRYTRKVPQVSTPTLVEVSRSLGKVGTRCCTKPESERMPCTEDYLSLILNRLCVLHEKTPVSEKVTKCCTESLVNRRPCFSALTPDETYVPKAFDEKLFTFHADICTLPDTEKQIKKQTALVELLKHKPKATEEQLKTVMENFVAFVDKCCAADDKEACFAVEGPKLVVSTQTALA
T1 sequence (P0A8V2 whole entry): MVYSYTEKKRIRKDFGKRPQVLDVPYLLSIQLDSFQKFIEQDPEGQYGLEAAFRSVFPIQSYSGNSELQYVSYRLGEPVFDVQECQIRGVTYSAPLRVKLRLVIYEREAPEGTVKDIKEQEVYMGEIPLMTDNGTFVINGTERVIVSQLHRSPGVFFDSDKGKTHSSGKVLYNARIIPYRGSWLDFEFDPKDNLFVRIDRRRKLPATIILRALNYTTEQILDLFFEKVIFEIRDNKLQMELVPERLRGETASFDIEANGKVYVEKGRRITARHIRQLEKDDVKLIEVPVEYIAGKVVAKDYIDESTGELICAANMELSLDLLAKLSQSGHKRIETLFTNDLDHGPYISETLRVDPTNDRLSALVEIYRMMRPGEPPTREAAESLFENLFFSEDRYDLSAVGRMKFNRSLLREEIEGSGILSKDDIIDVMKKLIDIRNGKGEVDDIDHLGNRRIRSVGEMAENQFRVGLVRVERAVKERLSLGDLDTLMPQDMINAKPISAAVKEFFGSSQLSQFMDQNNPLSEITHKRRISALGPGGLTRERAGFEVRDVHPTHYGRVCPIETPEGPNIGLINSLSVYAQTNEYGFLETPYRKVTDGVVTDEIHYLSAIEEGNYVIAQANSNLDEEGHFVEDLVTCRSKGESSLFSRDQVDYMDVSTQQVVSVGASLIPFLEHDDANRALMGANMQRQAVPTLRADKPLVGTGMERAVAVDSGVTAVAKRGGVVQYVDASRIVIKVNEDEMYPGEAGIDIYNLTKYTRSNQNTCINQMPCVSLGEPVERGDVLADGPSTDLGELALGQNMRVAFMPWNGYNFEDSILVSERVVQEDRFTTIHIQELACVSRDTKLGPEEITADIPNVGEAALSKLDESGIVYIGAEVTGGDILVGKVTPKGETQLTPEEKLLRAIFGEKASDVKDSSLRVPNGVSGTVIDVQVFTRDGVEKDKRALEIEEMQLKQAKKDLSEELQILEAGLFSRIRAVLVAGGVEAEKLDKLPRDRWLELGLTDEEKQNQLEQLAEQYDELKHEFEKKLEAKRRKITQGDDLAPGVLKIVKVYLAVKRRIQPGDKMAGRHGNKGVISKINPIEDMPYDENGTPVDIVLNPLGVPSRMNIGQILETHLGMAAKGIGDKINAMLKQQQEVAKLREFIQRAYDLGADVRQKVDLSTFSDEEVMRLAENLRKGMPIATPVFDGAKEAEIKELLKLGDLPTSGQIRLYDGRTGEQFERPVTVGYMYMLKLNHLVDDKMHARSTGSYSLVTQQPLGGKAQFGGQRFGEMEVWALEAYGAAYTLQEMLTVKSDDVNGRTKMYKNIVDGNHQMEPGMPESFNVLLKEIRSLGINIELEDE
T1 sequence (P0A8T7 whole entry): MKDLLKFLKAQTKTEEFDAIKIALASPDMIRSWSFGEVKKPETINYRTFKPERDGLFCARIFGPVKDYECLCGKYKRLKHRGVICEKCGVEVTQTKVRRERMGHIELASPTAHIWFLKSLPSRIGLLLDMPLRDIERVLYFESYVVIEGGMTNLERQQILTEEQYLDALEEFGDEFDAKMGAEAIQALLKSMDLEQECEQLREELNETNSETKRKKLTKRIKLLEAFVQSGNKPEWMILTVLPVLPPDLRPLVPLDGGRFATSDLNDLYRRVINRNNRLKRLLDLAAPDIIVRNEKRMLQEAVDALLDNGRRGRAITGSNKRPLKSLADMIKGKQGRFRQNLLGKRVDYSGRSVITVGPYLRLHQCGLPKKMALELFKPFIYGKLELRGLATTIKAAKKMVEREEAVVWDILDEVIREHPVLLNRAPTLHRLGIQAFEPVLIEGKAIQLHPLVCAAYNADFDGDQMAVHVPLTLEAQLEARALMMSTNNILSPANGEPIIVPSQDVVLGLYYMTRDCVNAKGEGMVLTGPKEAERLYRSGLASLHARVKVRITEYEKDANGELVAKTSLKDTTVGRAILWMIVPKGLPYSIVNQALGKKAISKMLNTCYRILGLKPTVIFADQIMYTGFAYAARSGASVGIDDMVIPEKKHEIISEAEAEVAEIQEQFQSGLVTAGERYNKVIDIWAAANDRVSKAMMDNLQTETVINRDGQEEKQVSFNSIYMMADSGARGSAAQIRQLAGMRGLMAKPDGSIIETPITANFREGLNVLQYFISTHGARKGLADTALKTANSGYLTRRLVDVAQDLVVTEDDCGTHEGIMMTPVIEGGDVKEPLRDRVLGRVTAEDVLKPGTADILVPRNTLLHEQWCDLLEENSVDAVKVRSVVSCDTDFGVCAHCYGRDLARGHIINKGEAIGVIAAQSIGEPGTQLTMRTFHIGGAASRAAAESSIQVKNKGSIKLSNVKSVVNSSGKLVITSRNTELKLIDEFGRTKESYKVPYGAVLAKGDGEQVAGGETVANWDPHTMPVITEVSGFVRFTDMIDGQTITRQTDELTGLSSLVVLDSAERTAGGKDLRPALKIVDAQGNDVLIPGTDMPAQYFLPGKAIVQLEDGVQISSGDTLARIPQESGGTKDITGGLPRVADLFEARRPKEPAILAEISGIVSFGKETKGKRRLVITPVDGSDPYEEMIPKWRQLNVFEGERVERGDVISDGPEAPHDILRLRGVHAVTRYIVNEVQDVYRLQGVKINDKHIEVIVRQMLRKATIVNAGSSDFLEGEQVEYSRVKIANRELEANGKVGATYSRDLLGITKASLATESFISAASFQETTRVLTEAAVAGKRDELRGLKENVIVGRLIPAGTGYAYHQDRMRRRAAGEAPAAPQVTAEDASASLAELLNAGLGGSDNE
T1 sequence (P0A7Z4 whole entry): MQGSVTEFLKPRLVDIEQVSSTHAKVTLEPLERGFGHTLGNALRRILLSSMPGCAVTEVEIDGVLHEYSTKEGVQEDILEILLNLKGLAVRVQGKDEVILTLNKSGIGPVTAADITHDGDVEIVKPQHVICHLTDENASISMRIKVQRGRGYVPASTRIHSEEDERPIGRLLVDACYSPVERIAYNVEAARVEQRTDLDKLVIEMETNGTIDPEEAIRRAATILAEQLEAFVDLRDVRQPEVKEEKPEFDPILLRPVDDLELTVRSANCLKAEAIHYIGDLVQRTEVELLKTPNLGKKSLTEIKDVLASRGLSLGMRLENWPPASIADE
T1 sequence (P0A800 2-91 partner limits assumed): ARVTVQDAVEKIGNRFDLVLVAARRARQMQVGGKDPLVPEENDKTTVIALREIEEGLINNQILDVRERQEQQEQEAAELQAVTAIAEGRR
T1 sequence (P00579 whole entry partner): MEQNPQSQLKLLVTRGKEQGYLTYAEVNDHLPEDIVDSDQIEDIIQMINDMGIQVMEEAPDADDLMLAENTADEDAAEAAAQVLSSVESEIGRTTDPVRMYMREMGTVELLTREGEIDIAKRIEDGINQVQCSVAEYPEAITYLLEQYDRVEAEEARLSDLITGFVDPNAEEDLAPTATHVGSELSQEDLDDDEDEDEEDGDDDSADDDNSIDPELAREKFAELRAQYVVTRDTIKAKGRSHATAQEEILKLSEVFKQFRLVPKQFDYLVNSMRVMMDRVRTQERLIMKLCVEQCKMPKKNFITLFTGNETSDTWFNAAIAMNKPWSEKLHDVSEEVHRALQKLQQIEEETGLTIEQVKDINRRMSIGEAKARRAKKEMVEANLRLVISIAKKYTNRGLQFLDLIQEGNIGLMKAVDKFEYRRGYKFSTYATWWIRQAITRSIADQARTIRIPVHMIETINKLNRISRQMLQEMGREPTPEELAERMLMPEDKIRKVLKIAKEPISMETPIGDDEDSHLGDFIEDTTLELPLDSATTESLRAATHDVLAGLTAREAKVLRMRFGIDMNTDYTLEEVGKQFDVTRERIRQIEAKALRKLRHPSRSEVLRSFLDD

Q: Which “Effect of the additive on ANSA cytotoxicity” value [1] does the source give for CC1(C)N([O])C(c2ccccc2)=[N+]([O-])C1(C)C [PTIO, 2-phenyl-4,4,5,5-tetramethylimidazoline-1-oxyl-3-oxide, reference compound] here?
A: Its value is “decreased the inhibitory effect”.

Q: And the “Effect of the additive on the bactericidal effect of ANSA (CFU)” value [2]?
A: Its value is “almost completely abolished the inhibitory effect”.

Q: For Nc1cccc2c(S(=O)(=O)N3CCOCC3)cccc12 [ANSA IV], which “*NO-dependent inactivation of RNAP (transcription) in the presence of ANSA” value (“*NO-dependent inactivation of RNAP” for short) [3] is on record?
A: The value was “partial negative effect”.

Q: Which “Effect on transcription by RNAP, agent alone” value [3] does the source give for [N]=O [*NO, Nitric oxide, reference compound] here?
A: The value was “partially inhibited transcription”.

Q: What about the “CFU, B. subtilis, rich media” value [4] of the same molecule?
A: Its value is “≈10^6 CFU ml^−1”.

Q: And the “CFU, B. subtilis, minimal media” value [4]?
A: Its value is “≈10^6 CFU ml^−1”.

Q: What about the “CFU, E. coli, rich media” value [5] of the same molecule?
A: The value was “≈10^6 CFU ml^−1”.

Q: What about the “CFU, E. coli, minimal media” value [5] of the same molecule?
A: The value was “≈10^6 CFU ml^−1”.

Q: What about the “Effect of the additive on the bactericidal effect of ANSA (CFU)” value [2] of the same molecule?
A: Its value is “restored the bactericidal effect”.

Q: Which “Effect on transcription by RNAP, agent alone” value [3] does the source give for O=NO [NO2^−, nitrite, reference compound] here?
A: Its value is “had no effect”.

Q: How did the “*NO-dependent inactivation of RNAP” value [3] turn out when CN(C)S(=O)(=O)c1cccc2c(N)cccc12 [ANSA III] was run?
A: The value was “partial negative effect”.

Q: Which results are given for CCCCCNS(=O)(=O)c1cccc2c(NC)cccc12 [ANSA VIII]?
A: Cytotoxic effect / cell survival (MTS, in words) [1]: had no effect on cell survival; CFU, B. subtilis, rich media [4]: ≈10^7 CFU ml^−1; CFU, B. subtilis, minimal media [4]: ≈10^7 CFU ml^−1; CFU, E. coli, rich media [5]: ≈10^7 CFU ml^−1; CFU, E. coli, minimal media [5]: ≈10^7 CFU ml^−1; Bactericidal effect / cell survival (in words) [2]: had no effect on cell survival

Q: What does the source list for CCCN(CCC)S(=O)(=O)c1cccc2c(N)cccc12 [ANSA II]?
A: Formation of a stable complex with BSA (BSA; gel filtration analysis): able to form a stable complex with BSA; Nitrosation of ANSA in the ANSA I+ANSA II+BSA mixture (BSA): nitrosated; *NO-dependent inactivation of RNAP (transcription) in the presence of ANSA [3]: completely inactivated RNAP; Effect on transcription by RNAP, agent alone [3]: did not affect transcription

Q: Which results are given for CNS(=O)(=O)c1cccc2c(N)cccc12 [ANSA I]?
A: Nitrosation of ANSA in the ANSA I+ANSA II+BSA mixture (BSA): intact; Cytotoxic effect / cell survival (MTS, in words) [1]: not; *NO-dependent inactivation of RNAP (transcription) in the presence of ANSA [3]: had no effect on transcription; CFU, B. subtilis, rich media [4]: ≈10^7 CFU ml^−1; CFU, B. subtilis, minimal media [4]: ≈10^7 CFU ml^−1; CFU, E. coli, rich media [5]: 10^6-10^7 CFU ml^−1; CFU, E. coli, minimal media [5]: ≈10^7 CFU ml^−1

Q: For CCCCCNS(=O)(=O)c1cccc2c(NC(=O)C(CCCNC(=N)N)NC(=O)C(CCCNC(=N)N)NC(=O)CNC(=O)CN)cccc12 (stereo not drawn) [ANSA VII], which “Cytotoxic effect / cell survival (MTS, in words)” value [1] is on record?
A: Its value is “strong cytotoxic effect”.

Q: What about the “*NO-dependent inactivation of RNAP” value [3] of the same molecule?
A: Its value is “unable to enhance inactivation of RNAP”.

Q: And the “CFU, E. coli, rich media” value [5]?
A: The value was 0 CFU ml^−1.

Q: And the “Bactericidal effect / cell survival (in words)” value [2]?
A: The value was “strongest bactericidal effect”.

Q: How did the “*NO-dependent inactivation of RNAP” value [3] turn out when CCCCCNS(=O)(=O)c1cccc2c(N)cccc12 [ANSA V] was run?
A: The value was “completely inactivated RNAP”.

Q: And the “CFU, B. subtilis, rich media” value [4]?
A: The value was 10^2-10^3 CFU ml^−1.

Q: What about the “CFU, B. subtilis, minimal media” value [4] of the same molecule?
A: The value was 10^2 CFU ml^−1.

Q: What about the “CFU, E. coli, rich media” value [5] of the same molecule?
A: The value was 0-20 CFU ml^−1.

Q: And the “CFU, E. coli, minimal media” value [5]?
A: Its value is “≈10^3 CFU ml^−1”.

Q: With COC(=O)[C@@H](N)CCCNC(=N)N[N+](=O)[O-] [L-NAME, reference compound] as the molecule, how does the “Effect of the additive on ANSA cytotoxicity” value [1] read?
A: The value was “decreased the cytotoxicity”.

Q: Which “*NO-dependent inactivation of RNAP” value [3] does the source give for CNc1cccc2c(S(=O)(=O)N(C)C)cccc12 [ANSA VI] here?
A: The value was “unable to enhance inactivation of RNAP”.
